Reference: patent US10857150B2, “Use of sanglifehrin macrocyclic analogues as anticancer compounds” (NEUROVIVE PHARMACEUTICAL AB, priority 2016, dated 2020)

Experiments:
LIXC-003 = assay: 7-day proliferation assay, Calcein AM staining; type: cell-based; conditions: Homo sapiens, 168 h, Example 6, n 2
Description: (§1) The cells were seeded in a 96-well plate, test compound or DMSO was added and the plate was incubated for additional four days or 7 days (Calcein AM assay). Viable cell counts were determined after detachment by treatment with trypsin either by trypan blue exclusion, flow cytometry, indirectly by measuring ATP content by addition of an ATP measuring reagent (CellTiter Glo), or Calcein AM, prepared according to the instruction of the manufacturer directly.
(§2) XLfit software ((Fit model: Dose response one site/^F(x)[fit=(A+((B−A)/(1+((C/x)^D))))]) for curve fitting and IC50 calculation) was used for curve fitting and IC50 calculation.
(§3) In vitro evaluation of a sanglifehrin macrocyclic analogue (1) for anticancer activity against human hepatocyte cancer cell lines in comparison with the cyclophilin inhibitor alisporivir and the kinase inhibitor sorafenib in a 7-day proliferation assay. The cell numbers were determined by Calcein AM staining as described in the methods section. Data are from one single experiment or means of two independent experiments testing duplicate samples of 9 concentrations of each compound. All three compounds were included in each experiment.

LIXC-012 = assay: 7-day proliferation assay, Calcein AM staining; type: cell-based; conditions: Homo sapiens, 168 h, Example 6, n 2
Description: as §1, §2, §3

HepG2 [1] = assay: 7-day proliferation assay, Calcein AM staining; type: cell-based; conditions: Homo sapiens, 168 h, Example 6, n 2
Description: as §1, §2, §3

LIXC-011 = assay: 7-day proliferation assay, Calcein AM staining; type: cell-based; conditions: Homo sapiens, 168 h, Example 6, n 1
Description: as §1, §2, §3

LIXC-004 = assay: 7-day proliferation assay, Calcein AM staining; type: cell-based; conditions: Homo sapiens, 168 h, Example 6, n 2
Description: as §1, §2, §3

LIXC-086 = assay: 7-day proliferation assay, Calcein AM staining; type: cell-based, human
Description: as §1, §2
(§4) In vitro evaluation of a sanglifehrin macrocyclic analogue (1) for anticancer activity against human hepatocyte cancer cell lines in comparison with NV556 (10) a 7-day proliferation assay. The cell numbers were determined by Calcein AM staining as described in the methods section. Data are from one experiment with each cell line testing duplicate samples of 9 concentrations of each compound. Both compounds were included in each experiment.
as §3

LIXC-006 = assay: 7-day proliferation assay, Calcein AM staining; type: cell-based, human
Description: as §1, §2, §4, §3

Hep3B2.1-7-Luc = assay: 7-day proliferation assay, Calcein AM staining; type: cell-based, human
Description: as §1, §2, §4, §3

LIXC-066 = assay: 7-day proliferation assay, Calcein AM staining; type: cell-based, human
Description: as §1, §2, §4, §3

LIXC-002 = assay: 7-day proliferation assay, Calcein AM staining; type: cell-based, human; conditions: Example 5, one experiment
Description: as §1, §2, §4

HepG2 [2] = assay: combination with sorafenib, 7-day proliferation assay (Calcein AM), isobologram; type: cell-based, human; conditions: combination with sorafenib at different doses
Description: as §1
To test for potential synergistic activity with sorafenib, compound 1 (A) was added at a range of concentrations along with a range of concentrations of sorafenib (B) against a liver cancer cell line, HepG2 in a 7-day proliferation assay (Calcein AM assay, described in the methods section). Data are from one single experiment representative of two independent experiments testing duplicate samples. The data was plotted in a normalized isobologram (Chou and Martin. CompuSyn for Drug Combinations: PC Software and User's Guide: A Computer Program for Quantitation of Synergism and Antagonism in Drug Combinations, and the Determination of IC50 and ED50 and LD50 Values, ComboSyn Inc, Paramus, (NJ), 2005) and is shown in FIG. 7. Values at the lower left below the hypotenuse indicate synergism.

[3] = test system: human hepatocyte cancer cell lines; assay: 7-day proliferation assay, comparison of potency over the cell lines; type: cell-based
Description: as §1, §4, §3

[4] = test system: SK-Hep-1 tumour cell line; assay: combined anticancer activity, monolayer proliferation assay; type: cell-based, human; conditions: over certain concentration ranges
Description: as §1
In vitro evaluation of the combined anticancer activity of a sanglifehrin macrocyclic analogue with the anticancer agents sorafenib or doxorubicin against the SK-Hep-1 tumour cell line in a monolayer proliferation assay was carried out as described in the general methods above.

HCT 116 = assay: monolayer proliferation assay, human tumour cell line panel; type: cell-based; conditions: means of two experiments, 3 nM-25 μM
Description: as §1
(§5) Percentage inhibition in the ATP test was calculated by the formula described below: Growth inhibition %: 100−100×(Experimental−Blank)/(DMSO−Blank)
as §2
(§6) In vitro evaluation of compounds for anticancer activity in a panel of human tumour cell lines in a monolayer proliferation assay were carried out at Shanghai Chempartner.
(§7) In vitro evaluation of a sanglifehrin macrocyclic analogue (NV556) for anticancer activity in a panel of 11 human tumour cell lines in a monolayer proliferation assay was carried out as described in the general methods above. Data are means from two independent experiments testing 10 concentrations (3 nM-25 μM) in duplicate.

HT-29 = assay: as above; type: cell-based; conditions: means of two experiments, 3 nM-25 μM
Description: as §1, §5, §2, §6, §7

MDA-MB-231 = assay: as above; type: cell-based; conditions: means of two experiments, 3 nM-25 μM
Description: as §1, §5, §2, §6, §7

RPMI 8226 = assay: as above; type: cell-based; conditions: means of two experiments, 3 nM-25 μM
Description: as §1, §5, §2, §6, §7

U251 = assay: as above; type: cell-based; conditions: means of two experiments, 3 nM-25 μM
Description: as §1, §5, §2, §6, §7

A375 = assay: as above; type: cell-based; conditions: means of two experiments, 10 concentrations 3 nM-25 μM
Description: as §1, §5, §2, §6, §7

PANC-1 = assay: as above; type: cell-based; conditions: means of two experiments, 3 nM-25 μM
Description: as §1, §5, §2, §6, §7

A2780 = assay: as above; type: cell-based; conditions: means of two experiments, 3 nM-25 μM
Description: as §1, §5, §2, §6, §7

HepG2 [5] = assay: as above; type: cell-based; conditions: means of two experiments, 3 nM-25 μM
Description: as §1, §5, §2, §6, §7

A549 = assay: as above; type: cell-based; conditions: means of two experiments, 3 nM-25 μM
Description: as §1, §5, §2, §6, §7

PC-3 = assay: as above; type: cell-based; conditions: means of two experiments, 3 nM-25 μM
Description: as §1, §5, §2, §6, §7

SK-Hep-1 = assay: as above; type: cell-based; conditions: means of two experiments, 3 nM-25 μM
Description: as §1, §5, §2, §6, §7

Huh-7 = assay: as above; type: cell-based; conditions: means of two experiments, 3 nM-25 μM
Description: as §1, §5, §2, §6, §7

cyclophilin A (CyPA) = cyclophilin A (CyPA) (Homo sapiens, UniProt P62937); conditions: cited from earlier work
[6] = test system: cancer cell lines Huh7, HepG2 and OEM; conditions: three cancer cell lines Huh7, HepG2 and OEM; WO2011/098805; cited from earlier work
[7] = Homo sapiens, 168 h, Example 6, n 1
[8] = Homo sapiens, 168 h, Example 6, n 2
[9] = Homo sapiens, 168 h, Example 5, one experiment
[10] = read-out: Concentration giving 50% of maximum effect

Sequence of cyclophilin A (CyPA) (P62937 whole entry, species assumed): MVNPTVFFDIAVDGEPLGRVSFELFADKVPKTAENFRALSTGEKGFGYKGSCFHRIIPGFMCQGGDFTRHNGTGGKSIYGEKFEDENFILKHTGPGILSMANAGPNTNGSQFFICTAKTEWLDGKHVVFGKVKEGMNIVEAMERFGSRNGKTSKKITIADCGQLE

## C/C=C/C[C@@H](C)[C@@H](O)[C@H]1C(=O)N[C@@H](CC)C(=O)N(C)[C@H](C)C(=O)N(CC)[C@@H](C(C)C)C(=O)N[C@@H](C(C)C)C(=O)N(C)[C@@H](CC(C)C)C(=O)N[C@@H](C)C(=O)N[C@H](C)C(=O)N(C)[C@@H](CC(C)C)C(=O)N(C)[C@@H](CC(C)C)C(=O)N(C)[C@@H](C(C)C)C(=O)N1C [Alisporivir, alisporivir]
LIXC-003
  IC50: 4730 nM
LIXC-012
  IC50: 3220 nM
HepG2 [1]
  IC50: 3130 nM
LIXC-011
  IC50: 8710 nM
LIXC-004
  IC50: 3810 nM
LIXC-086; [7]
  IC50: 2250 nM
LIXC-006; [8]
  IC50: 993 nM
Hep3B2.1-7-Luc; [7]
  IC50: 2880 nM
LIXC-066; [7]
  IC50: 1640 nM

## CC(=O)CC[C@H]1C(=O)N[C@@H](C(C)C)C(=O)N[C@@H](Cc2cc(O)cc(F)c2)C(=O)N2CCCC(N2)C(=O)O[C@H](/C(C)=C/C=C/C(=O)OC(C)(C)C)C/C=C/C=C/[C@H](O)[C@H](C)[C@H]1O (some centres unmarked) [Compound 1]
LIXC-002; Homo sapiens, 168 h
  IC50: < 3 nM
LIXC-003
  IC50: 8 nM
LIXC-012
  IC50: 65 nM
HepG2 [1]
  IC50: 7 nM
LIXC-011
  IC50: 12 nM
LIXC-004
  IC50: 4 nM
LIXC-086; [9]
  IC50: 905 nM
LIXC-086; [7]
  IC50: 686 nM
LIXC-006; [9]
  IC50: 9 nM
LIXC-006; [8]
  IC50: 6 nM
Hep3B2.1-7-Luc; [9]
  IC50: 11 nM
Hep3B2.1-7-Luc; [7]
  IC50: 9 nM
LIXC-066; [9]
  IC50: 93 nM
LIXC-066; [7]
  IC50: 169 nM
HepG2 [2]
  growth inhibitory effect of simultaneous treatment: synergistic growth inhibitory effect
[3]; Example 5, all cases (5 cell lines)
  potency relative to NV556 (10): 3-10 fold
[3]; Example 6, all cases (9 cell lines)
  potency relative to alisporivir: 3-1000 fold
[3]; Example 6, in 8/9 cases
  potency relative to sorafenib: 3-600 fold

## CC(=O)CCC1C(=O)NC(C(C)C)C(=O)NC(Cc2cc(O)cc(F)c2)C(=O)N2CCCC(N2)C(=O)OC(C(C)=CC=CC(=O)N2CCCCO2)CC=CC=CC(O)C(C)C1O (centres unmarked) [NV556]
LIXC-002
  IC50: 39 nM
LIXC-086; Example 5, one experiment
  IC50: 9490 nM
LIXC-006; Example 5, one experiment
  IC50: 62 nM
Hep3B2.1-7-Luc; Example 5, one experiment
  IC50: 54 nM
LIXC-066; Example 5, one experiment
  IC50: 244 nM
[4]; combination with doxorubicin
  reduction in cell numbers, combination versus single compounds: stronger reduction in cell numbers than either compound alone
[4]; combination with sorafenib
  reduction in cell numbers, combination versus single compounds: stronger reduction in cell numbers than either compound alone
HCT 116
  Maximum inhibition (%): 88.7%
HCT 116; [10]
  EC50: 100 nM
HT-29
  Maximum inhibition (%): 56.8%
MDA-MB-231
  Maximum inhibition (%): 49.9%
MDA-MB-231; [10]
  EC50: 500 nM
RPMI 8226
  Maximum inhibition (%): 87.1%
RPMI 8226; [10]
  EC50: 200 nM
U251
  Maximum inhibition (%): 62.0%
U251; [10]
  EC50: 16900 nM
A375
  Maximum inhibition (%): 87.6%
A375; [10]
  EC50: 2100 nM
PANC-1
  Maximum inhibition (%): 51.0%
PANC-1; [10]
  EC50: 1300 nM
A2780
  Maximum inhibition (%): 83.7%
A2780; [10]
  EC50: 100 nM
HepG2 [5]
  Maximum inhibition (%): 80.6%
HepG2 [5]; [10]
  EC50: 100 nM
A549
  Maximum inhibition (%): 45.2%
A549; [10]
  EC50: 100 nM
PC-3
  Maximum inhibition (%): 45.3%
PC-3; [10]
  EC50: 300 nM
SK-Hep-1
  Maximum inhibition (%): 94.6%
SK-Hep-1; [10]
  EC50: 100 nM
Huh-7
  Maximum inhibition (%): 22.4%
Huh-7; [10]
  EC50: 30 nM

## CC[C@H]1C[C@H](C)[C@@]2(NC1=O)O[C@@H](C[C@H](O)[C@@H](C)CC/C=C/C=C(\C)[C@@H]1C/C=C/C=C/[C@H](O)[C@H](C)[C@@H](O)[C@@H](CCC(C)=O)C(=O)N[C@@H](C(C)C)C(=O)N[C@@H](Cc3cccc(O)c3)C(=O)N3CCC[C@H](N3)C(=O)O1)[C@H](C)[C@H](O)[C@@H]2C [SfA, Sanglifehrin A]
Cyclophilin A (CyPA); higher affinity
  affinity for CyPA compared to CsA: approximately 20 fold

## CNC(=O)c1cc(Oc2ccc(NC(=O)Nc3ccc(Cl)c(C(F)(F)F)c3)cc2)ccn1 [Sorafenib, sorafenib]
LIXC-003
  IC50: 4 nM
LIXC-012
  IC50: 1150 nM
HepG2 [1]
  IC50: 2960 nM
LIXC-011
  IC50: 538 nM
LIXC-004
  IC50: 2190 nM
LIXC-006; [8]
  IC50: 3960 nM

## CC(=O)CCC1C(=O)NC(C(C)C)C(=O)NC(Cc2cccc(O)c2)C(=O)N2CCCC(N2)C(=O)OC(C(C)=CC=CC(=O)OC(C)(C)C)CC=CC=CC(O)C(C)C1O (centres unmarked) [compound 9]
[6]
  effect on cancer cell lines: limited effect

## CC(=O)CCC1C(=O)NC(C(C)C)C(=O)NC(Cc2cccc(O)c2)C(=O)N2CCCC(N2)C(=O)OC(C(C)=CCO)CC=CC=CC(O)C(C)C1O (centres unmarked) [hydroxymacrocycle]
Cyclophilin A (CyPA); Sedrani et al., 2003
  affinity for CyPA: strong affinity
